We go through three compounds from DBAASP.

Converted amounts (≈) assume the structure as drawn.

Among the test systems are Salmonella typhimurium; Escherichia coli 4530; Escherichia coli 170; Acinetobacter baumannii.
What all share (assay): ≥ marks a high value that may be exact or a test limit, other limits are often not marked, values filed in µg/mL are converted to µM
The test system of test [1] is Candida albicans ATCC 90028.
Test [2] deals with Staphylococcus epidermidis RP62A/1.
The test system of test [3] is Staphylococcus aureus 127/08.
Test [4] relates to Staphylococcus aureus 145/08.
Test [5] deals with Stenotrophomonas maltophilia B5/5.
In test [6] the test system is Staphylococcus epidermidis T37/8.
In test [7] the test system is Stenotrophomonas maltophilia B6/2.
In test [8] the test system is Staphylococcus epidermidis RP62A.
Test [9] concerns Staphylococcus aureus T4/6.
In test [10] the test system is Staphylococcus aureus ATCC 25923.
In test [11] the test system is Staphylococcus epidermidis T6/19.
Test [12] deals with Stenotrophomonas maltophilia U8908.
In test [13] the test system is Staphylococcus aureus V4180.
Test [14] relates to Acinetobacter baumannii NM109.
Test [15] deals with Stenotrophomonas maltophilia B32/4.
Test [16] has as its system Escherichia coli ATCC 25726.
The test system of test [17] is Acinetobacter baumannii NM8.
In test [18] the test system is Acinetobacter baumannii NM75.
In test [19] the test system is Pseudomonas aeruginosa ATCC 27853.
Test [20] has as its system Staphylococcus aureus 274/08.
Test [21] relates to Enterococcus faecalis ATCC 29212.
The subject of test [22] is Staphylococcus aureus S908.
Test [23] deals with Acinetobacter baumannii NM35.
Test [24] deals with Stenotrophomonas maltophilia B32/1.
Test [25] deals with Acinetobacter baumannii NM124.
Test [26] relates to Klebsiella pneumoniae ATCC 700603.
Test [27] has as its system Streptococcus pneumoniae ATCC 49619.
Test [28] has as its system Klebsiella pneumoniae 1625.
For test [29], the system named is Klebsiella pneumoniae 913.
In test [30] the test system is Enterobacter cloacae 6780.
Test [31] deals with Pseudomonas aeruginosa 4677.
The test system of test [32] is Escherichia coli ATCC 25922.
Test [33] relates to Enterobacter cloacae 2524.
Test [34] relates to Staphylococcus aureus ATCC 29213.
In test [35] the test system is Candida albicans ATCC 37092.

Turning to `CC[C@H](C)[C@H](NC(=O)[C@H](C)NC(=O)[C@H](CCCCN)NC(=O)CNC(=O)[C@@H](NC(=O)[C@H](Cc1cnc[nH]1)NC(=O)CNC(=O)[C@H](CC(C)C)NC(=O)[C@H](CC(C)C)NC(=O)[C@@H](NC(=O)CNC(=O)[C@@H](NC(=O)[C@H](CC(C)C)NC(=O)CN)C(C)C)[C@@H](C)O)[C@@H](C)CC)C(=O)N[C@@H](CC(C)C)C(=O)NCC(=O)O` [GLVGTLLGHIGKAILG], the MIC (as a rule, the least concentration at which growth counts as inhibited) in test [1] was not below 250 µM; in test [2], not below 125 µM; in test [3] it was not below 125 µM; in [4] it was not below 250 µM; in test [5], not below 250 µM; in [6], not below 250 µM. For the same compound, the MIC in [7] was not below 250 µM; in test [8], not below 125 µM; in test [9] it was not below 250 µM; in test [10] it was 125 µM (≈ 190 µg/mL); in test [11] it was not below 125 µM; in test [12], not below 250 µM. The MIC in test [13], in [14], in test [15], in test [16], in test [17] and in [18] was not below 250 µM each time. The MIC in test [19] is more than 250 µM; in test [20], not below 250 µM; in [21], 250 µM (≈ 380 µg/mL); in test [22], not below 125 µM; in test [23] it was not below 250 µM; in test [24] it was not below 250 µM. Besides, the figures for the MIC in [25] and in test [26] were not below 250 µM and more than 250 µM, respectively.
For `CC[C@H](C)[C@H](NC(=O)CN)C(=O)N[C@@H](CC(C)C)C(=O)N[C@@H](CC(N)=O)C(=O)N[C@H](C(=O)N[C@H](C(=O)N[C@@H](CCCCN)C(=O)N[C@@H](CO)C(=O)N[C@H](C(=O)N[C@@H](C)C(=O)N[C@@H](CO)C(=O)N[C@@H](CCCCN)C(=O)N[C@@H](CC(C)C)C(=O)N[C@@H](CCCCN)C(=O)N[C@@H](CCCN=C(N)N)C(=O)N[C@@H](CCCCN)C(=O)N[C@@H](C)C(=O)N[C@@H](CCCCN)C(=O)O)[C@@H](C)CC)[C@@H](C)CC)[C@@H](C)O` [GILNTIKSIASKLKRKAK], the MIC in test [27] was not below 50 µM; in test [28], 3.12 µM (≈ 6.14 µg/mL); in test [29], 6.25 µM (≈ 12.3 µg/mL); in the test on Salmonella typhimurium it was 4.38 µM (≈ 8.63 µg/mL); in [30], 3.12 µM (≈ 6.14 µg/mL); in [31], not below 50 µM. Also, the MIC against Escherichia coli 4530 was not below 50 µM; with Escherichia coli 170, 1.56 µM (≈ 3.07 µg/mL); against Acinetobacter baumannii it was 2.21 µM (≈ 4.35 µg/mL); in test [32], 1.56 µM (≈ 3.07 µg/mL); in test [33], not below 50 µM.
With `CC[C@H](C)[C@H](NC(=O)[C@@H]1CCCN1C(=O)[C@H](CCCN=C(N)N)NC(=O)[C@@H]1CCCN1C(=O)CNC(=O)[C@@H]1CCCN1C(=O)[C@H](CCCN=C(N)N)NC(=O)[C@@H]1CCCN1C(=O)[C@H](Cc1ccccc1)NC(=O)[C@@H]1CCCN1C(=O)[C@H](CC(C)C)NC(=O)[C@@H]1CCCN1)C(=O)N1CCC[C@H]1C(=O)N[C@@H](CCCN=C(N)N)C(=O)N1CCC[C@H]1C(=O)O` [PLPFPRPGPRPIPRP], the MIC in [34] is more than 500 µM; in test [35], 30.5 µM (≈ 51.7 µg/mL); in [32] it was more than 500 µM.
